# Reference: patent publication US20220226343A1, “3-AMINO-4-[4-[4 (DIMETHYLCARBAMOYL) PHENYL]-1,4-DIAZEPAN-1-YL]THIENO[2,3-B]PYRIDINE-2-CARBOXAMIDE FOR USE IN CANCER THERAPY AND FORMULATIONS COMPRISING THE SAME” (University of South Carolina, priority 2019, published 2022)
# Columns and labels:
# CDC2L5 = molecular target: T1, CDC2L5 (Homo sapiens, UniProt Q14004); experiment: KINOMEscan scanMAX; format: binding; details: CDC2L5, 2000 nM
# T1 construct: purchased DiscoverX (KINOMEscan scanMAX service)
# Text: (§1) Nat. Biotechnol. 23, 329-336 (2005).
# (§2) Percent Control (% Ctrl).
# (§3) % Ctrl=100×(TS−CPOS)/(CNEG−CPOS) (eqn 1)
# FLT3(ITD) = experiment: KINOMEscan scanMAX; format: binding; details: 2000 nM
# Text: as §1, §2, §3
# FLT3(ITD, D835V) = experiment: KINOMEscan scanMAX; format: binding; details: 2000 nM
# Text: as §1, §2, §3
# FLT3(ITD, F691L) = experiment: KINOMEscan scanMAX; format: binding; details: 2000 nM
# Text: as §1, §2, §3
# PFCDPK1(P. falciparum) = molecular target: T2, PFCDPK1(P. falciparum) (Plasmodium falciparum, UniProt P62344); experiment: KINOMEscan scanMAX; format: binding; details: 2000 nM
# T2 construct: DNA label (qPCR read-out); purchased DiscoveRx (KINOMEscan scanMAX)
# Text: as §1, §2, §3
# PFPK5(P. falciparum) = molecular target: T3, PFPK5(P. falciparum) (Plasmodium falciparum, UniProt P61075); experiment: KINOMEscan scanMAX; format: binding; details: 2000 nM
# T3 construct: purchased KINOMEscan (DiscoveRx) scanMAX panel
# Text: as §1, §2, §3
# PKNB(M. tuberculosis) = molecular target: T4, PKNB(M. tuberculosis) (Mycobacterium tuberculosis, UniProt P9WI81); experiment: KINOMEscan scanMAX; format: binding; details: 2000 nM
# T4 construct: purchased DiscoveRx (KINOMEscan scanMAX panel)
# Text: as §1, §2, §3
# PRP4 = molecular target: T5, PRP4 (Homo sapiens, UniProt Q13523); experiment: KINOMEscan scanMAX; format: binding; details: PRP4, 2000 nM
# T5 construct: DNA label (qPCR read-out); purchased DiscoverX (KINOMEscan)
# Text: as §1, §2, §3
# [1] = test system: PSA expression in CRPC cell line C4-2; experiment: PSA expression in cell culture supernatant of C4-2 cells; format: cell-based; details: 96 h; C4-2 culture supernatant, 4-day treatment, FBS-supplemented regular media
# Text: CDK8/19 inhibition decreases the expression of certain androgen-receptor (AR) inducible genes including PSA, the most common marker of prostate cancer, and the growth of castration-refractory prostate cancers (CRPC).
# MYC-CAP-CR cells = experiment: Long-term clonogenic assay, MYC-CaP-CR; format: cell-based, murine; details: 1 μM Senexin B, 1 μM 15u, 5 μM enzalutamide
# Text: MYC-CaP-CR cells (Ellis L. et al., 2012. Prostate 72(6):587-591) were selected for castration resistance from genetically engineered MYC-CaP cells that express MYC from an AR-responsive promoter (Watson P A, et al., 2005. Cancer Res 65(24):11565-11571). Castration resistance in these cells is associated with the overexpression of full-length AR rather than an AR variant, such as AR-V7 in 22rv1 (Olson B M, et al., 2017. Cancer immunology research 5(12):1074-1085).
# [2] = test system: 4T1 murine TNBC lung metastasis; experiment: 4T1 breast cancer metastasis survival after primary tumor removal; format: in vivo, mouse; details: 15u 25 mg/kg oral b.i.d. after removal of the primary 4T1 tumor
# Experimental: 4T1 is a murine triple-negative breast cancer (TNBC) cell line, which is highly metastatic to the lungs. […] Parental and CDK8-knockdown 4T1 cells (n=10) were injected orthotopically in the mammary fat pad and the primary tumors were removed 17 days later. Following surgery, all the mice eventually died with lung metastases. […] However, the loss of CDK8 was associated with a strong increase in the survival of mice (FIG. 10C). […]
# [3] = test system: luciferase-expressing MV4-11 cells; experiment: MV4-11 leukemia in female NSG mice (BLI); format: in vivo, mouse; details: for inhibition of leukemia growth: 23 days, BLI
# [4] = Oral PK by formulation, male CD-1 mice 30 mg/kg; format: in vivo, mouse; details: for Elimination rate k: male CD-1
# [5] = Oral PK by formulation, male Sprague Dawley rats 30 mg/kg; format: in vivo, rat; details: oral 30 mg/kg
# Experimental: We have also compared the PK of Suspension Vehicle 1 and Liquid formulation 2 in male Sprague Dawley rats, after oral administration at 30 mg/kg.
# [6] = MTD, oral gavage b.i.d. 14 days, CD-1 mice; format: in vivo, mouse; details: for detrimental effects: 14 days
# Experimental: The highest dose (120 mg/kg b.i.d.) caused about 10% body weight loss in female mice after 7-10 days of treatment but no further deterioration was observed through the rest of the treatment period (FIG. 16A).
# [7] = MTD, medicated diet 4 or 5 weeks, CD-1 mice; format: in vivo, mouse; details: female CD-1 mice, 1000 ppm medicated diet, first week
# Experimental: In another long-term MTD in vivo assay, groups of male and female CD-1 mice were fed regular diet (control) or 15u-medicated diet (500 ppm or 1000 ppm) for 4 or 5 weeks (FIG. 16B). The daily doses of 500 ppm and 1000 ppm groups were estimated to be about 50-100 mg/kg and 100-200 mg/kg, respectively, based on daily diet consumption.
# [8] = test system: alkaline phosphatase (ALPase); details: concentration that enhances ALPase activity to 200% of control, ST2 cells; cited from earlier work
# [9] = test system: CRPC cell line 22rv1 xenograft
# in vivo = details: female, CD-1, mouse, in vivo, po, 30 mg/kg
# CSNK1D = CSNK1D (Homo sapiens, UniProt P48730); experiment: Kd Elect binding assay (DiscoverX)
# CSNK1E = CSNK1E (Homo sapiens, UniProt P49674); experiment: Kd Elect binding assay (DiscoverX)
# [10] = Oral PK by formulation, male FVB mice 50 mg/kg; details: for Elimination rate k: male FVB
# [11] = 50 mg/kg orally daily, castrated male nude mice
# T4 sequence (P9WI81 whole entry): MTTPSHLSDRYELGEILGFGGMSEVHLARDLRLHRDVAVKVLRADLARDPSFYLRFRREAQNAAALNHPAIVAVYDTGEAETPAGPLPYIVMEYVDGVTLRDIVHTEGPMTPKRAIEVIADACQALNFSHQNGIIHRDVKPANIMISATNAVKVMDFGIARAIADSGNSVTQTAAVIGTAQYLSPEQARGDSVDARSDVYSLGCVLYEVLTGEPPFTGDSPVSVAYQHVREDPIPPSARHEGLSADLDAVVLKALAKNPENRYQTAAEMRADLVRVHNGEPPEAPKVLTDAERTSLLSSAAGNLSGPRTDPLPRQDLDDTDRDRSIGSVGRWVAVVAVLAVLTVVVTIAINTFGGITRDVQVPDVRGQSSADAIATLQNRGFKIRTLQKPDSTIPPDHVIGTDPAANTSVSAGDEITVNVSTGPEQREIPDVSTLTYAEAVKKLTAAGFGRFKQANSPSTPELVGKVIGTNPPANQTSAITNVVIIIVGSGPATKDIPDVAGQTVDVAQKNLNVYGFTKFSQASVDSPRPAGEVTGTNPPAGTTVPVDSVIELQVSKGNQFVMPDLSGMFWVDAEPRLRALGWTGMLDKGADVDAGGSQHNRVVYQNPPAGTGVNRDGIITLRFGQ
# T3 sequence (P61075 whole entry): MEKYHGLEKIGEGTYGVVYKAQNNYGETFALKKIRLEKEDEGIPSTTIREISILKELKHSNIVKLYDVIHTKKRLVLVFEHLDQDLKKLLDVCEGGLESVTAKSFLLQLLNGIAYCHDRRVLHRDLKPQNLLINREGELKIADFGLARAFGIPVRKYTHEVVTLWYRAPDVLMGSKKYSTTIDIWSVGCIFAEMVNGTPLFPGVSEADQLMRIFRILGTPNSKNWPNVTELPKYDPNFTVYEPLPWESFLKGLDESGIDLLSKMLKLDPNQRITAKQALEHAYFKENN
# Sequence of CSNK1D (P48730 whole entry): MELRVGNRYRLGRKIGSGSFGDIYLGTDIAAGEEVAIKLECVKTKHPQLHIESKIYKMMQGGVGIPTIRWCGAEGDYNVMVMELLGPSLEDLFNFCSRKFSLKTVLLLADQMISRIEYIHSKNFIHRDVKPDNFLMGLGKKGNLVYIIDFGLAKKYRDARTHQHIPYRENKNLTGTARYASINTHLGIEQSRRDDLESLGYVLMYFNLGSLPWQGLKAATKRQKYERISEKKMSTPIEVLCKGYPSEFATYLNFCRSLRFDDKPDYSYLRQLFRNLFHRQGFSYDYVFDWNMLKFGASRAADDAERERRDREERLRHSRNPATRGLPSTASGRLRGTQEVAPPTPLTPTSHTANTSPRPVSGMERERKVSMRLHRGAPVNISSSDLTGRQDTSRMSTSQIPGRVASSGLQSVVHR
# Sequence of CSNK1E (P49674 whole entry): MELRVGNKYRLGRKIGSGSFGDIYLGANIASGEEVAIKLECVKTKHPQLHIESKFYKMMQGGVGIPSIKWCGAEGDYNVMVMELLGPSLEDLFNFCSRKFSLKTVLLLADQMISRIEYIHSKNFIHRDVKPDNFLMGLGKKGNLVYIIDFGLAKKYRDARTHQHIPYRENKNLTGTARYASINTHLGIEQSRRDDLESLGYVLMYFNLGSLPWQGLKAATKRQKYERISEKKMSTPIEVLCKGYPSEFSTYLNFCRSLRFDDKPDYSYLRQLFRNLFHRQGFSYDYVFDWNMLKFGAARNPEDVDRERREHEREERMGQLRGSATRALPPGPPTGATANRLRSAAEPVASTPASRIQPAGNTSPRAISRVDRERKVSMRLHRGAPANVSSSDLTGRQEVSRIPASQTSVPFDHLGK
# T5 sequence (Q13523 whole entry): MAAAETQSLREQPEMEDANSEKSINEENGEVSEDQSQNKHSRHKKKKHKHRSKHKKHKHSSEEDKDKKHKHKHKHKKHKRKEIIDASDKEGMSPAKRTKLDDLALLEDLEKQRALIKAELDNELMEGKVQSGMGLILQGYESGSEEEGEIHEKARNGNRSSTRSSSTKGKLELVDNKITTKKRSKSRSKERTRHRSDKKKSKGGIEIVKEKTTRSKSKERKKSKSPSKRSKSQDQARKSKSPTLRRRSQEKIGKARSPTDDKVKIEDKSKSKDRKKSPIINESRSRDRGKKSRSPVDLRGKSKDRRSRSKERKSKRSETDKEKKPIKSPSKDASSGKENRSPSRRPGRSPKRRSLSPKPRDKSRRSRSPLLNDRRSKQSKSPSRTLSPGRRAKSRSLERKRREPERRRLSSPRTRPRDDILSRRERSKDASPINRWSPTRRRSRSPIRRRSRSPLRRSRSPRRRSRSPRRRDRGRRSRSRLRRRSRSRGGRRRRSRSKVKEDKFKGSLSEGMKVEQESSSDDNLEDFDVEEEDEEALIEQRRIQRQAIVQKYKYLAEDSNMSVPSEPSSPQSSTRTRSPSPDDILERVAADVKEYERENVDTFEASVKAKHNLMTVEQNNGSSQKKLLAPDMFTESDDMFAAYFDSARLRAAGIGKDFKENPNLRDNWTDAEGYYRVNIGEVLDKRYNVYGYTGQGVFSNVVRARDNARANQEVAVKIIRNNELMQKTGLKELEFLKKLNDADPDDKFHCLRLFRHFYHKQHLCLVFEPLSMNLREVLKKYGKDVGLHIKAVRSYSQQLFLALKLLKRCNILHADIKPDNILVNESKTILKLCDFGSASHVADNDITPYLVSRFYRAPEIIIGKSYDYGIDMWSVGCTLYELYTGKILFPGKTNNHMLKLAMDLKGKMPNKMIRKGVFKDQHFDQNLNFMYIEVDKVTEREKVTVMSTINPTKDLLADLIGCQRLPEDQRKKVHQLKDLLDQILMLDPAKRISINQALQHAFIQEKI
# T1 sequence (Q14004 whole entry): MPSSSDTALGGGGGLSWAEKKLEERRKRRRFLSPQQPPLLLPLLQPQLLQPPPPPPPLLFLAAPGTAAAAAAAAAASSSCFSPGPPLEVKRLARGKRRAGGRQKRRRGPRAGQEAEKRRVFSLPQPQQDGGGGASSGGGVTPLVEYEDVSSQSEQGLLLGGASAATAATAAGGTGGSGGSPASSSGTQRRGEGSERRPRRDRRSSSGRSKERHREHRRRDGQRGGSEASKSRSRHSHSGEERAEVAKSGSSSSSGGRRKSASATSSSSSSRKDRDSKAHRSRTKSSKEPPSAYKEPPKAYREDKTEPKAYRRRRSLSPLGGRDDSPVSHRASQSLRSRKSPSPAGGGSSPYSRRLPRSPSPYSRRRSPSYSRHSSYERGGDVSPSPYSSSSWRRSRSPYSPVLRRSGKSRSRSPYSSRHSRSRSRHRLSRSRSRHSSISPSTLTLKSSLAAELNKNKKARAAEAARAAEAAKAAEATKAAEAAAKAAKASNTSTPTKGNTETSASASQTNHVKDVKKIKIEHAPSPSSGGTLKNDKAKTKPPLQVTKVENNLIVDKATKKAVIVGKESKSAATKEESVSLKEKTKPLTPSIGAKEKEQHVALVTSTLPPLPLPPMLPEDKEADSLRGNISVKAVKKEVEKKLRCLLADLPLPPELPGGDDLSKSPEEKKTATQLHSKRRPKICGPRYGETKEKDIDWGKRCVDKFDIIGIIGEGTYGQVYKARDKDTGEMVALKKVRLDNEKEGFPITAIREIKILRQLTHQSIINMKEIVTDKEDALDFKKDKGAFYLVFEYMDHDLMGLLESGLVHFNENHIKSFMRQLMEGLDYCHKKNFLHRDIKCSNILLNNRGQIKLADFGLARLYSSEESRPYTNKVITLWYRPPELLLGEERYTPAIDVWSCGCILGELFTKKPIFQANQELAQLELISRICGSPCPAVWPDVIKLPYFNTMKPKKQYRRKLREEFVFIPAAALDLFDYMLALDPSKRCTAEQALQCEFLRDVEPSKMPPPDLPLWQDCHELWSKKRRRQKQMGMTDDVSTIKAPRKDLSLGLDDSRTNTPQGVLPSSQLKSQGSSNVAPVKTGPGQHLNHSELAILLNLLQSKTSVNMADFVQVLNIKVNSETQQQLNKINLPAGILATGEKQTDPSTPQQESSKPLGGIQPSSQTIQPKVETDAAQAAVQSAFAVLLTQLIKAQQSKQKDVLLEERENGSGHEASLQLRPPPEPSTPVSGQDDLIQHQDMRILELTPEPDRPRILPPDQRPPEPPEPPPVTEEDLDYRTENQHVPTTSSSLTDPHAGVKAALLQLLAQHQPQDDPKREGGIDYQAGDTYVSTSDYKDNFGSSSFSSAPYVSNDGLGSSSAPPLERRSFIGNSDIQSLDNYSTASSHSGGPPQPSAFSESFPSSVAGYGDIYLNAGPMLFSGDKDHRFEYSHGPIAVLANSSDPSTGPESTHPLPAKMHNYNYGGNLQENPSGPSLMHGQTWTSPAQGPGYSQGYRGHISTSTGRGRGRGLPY
# T2 sequence (P62344 whole entry): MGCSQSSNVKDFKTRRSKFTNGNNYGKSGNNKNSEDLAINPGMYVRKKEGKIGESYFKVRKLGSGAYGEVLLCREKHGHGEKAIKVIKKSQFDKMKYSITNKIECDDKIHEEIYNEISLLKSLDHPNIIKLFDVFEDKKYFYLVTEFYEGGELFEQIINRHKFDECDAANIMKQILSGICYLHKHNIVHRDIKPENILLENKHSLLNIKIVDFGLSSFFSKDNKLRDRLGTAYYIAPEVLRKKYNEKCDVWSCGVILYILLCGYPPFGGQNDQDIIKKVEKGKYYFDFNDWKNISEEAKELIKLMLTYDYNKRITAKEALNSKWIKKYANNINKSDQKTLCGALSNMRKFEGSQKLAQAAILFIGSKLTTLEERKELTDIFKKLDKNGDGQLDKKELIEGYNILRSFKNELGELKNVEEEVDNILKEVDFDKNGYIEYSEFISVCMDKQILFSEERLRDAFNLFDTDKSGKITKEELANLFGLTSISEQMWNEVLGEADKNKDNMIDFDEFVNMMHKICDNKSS
smiles,measurement,setting,value
"CN(C)C(=O)c1ccc(N2CCCN(c3ccnc4sc(C(N)=O)c(N)c34)CC2)cc1 [Compound 15u, 3-amino-4-(4-(4-(dimethylcarbamoyl)phenyl)-1,4-diazepan-1-yl)thieno[2,3-b]pyridine-2-carboxamide]",% Ctrl,CDC2L5,71 % Ctrl
same,% Ctrl,FLT3(ITD),82 % Ctrl
same,% Ctrl,"FLT3(ITD, D835V)",41 % Ctrl
same,% Ctrl,"FLT3(ITD, F691L)",95 % Ctrl
same,% Ctrl,PFCDPK1(P. falciparum),94 % Ctrl
same,% Ctrl,PFPK5(P. falciparum),68 % Ctrl
same,% Ctrl,PKNB(M. tuberculosis),100 % Ctrl
same,% Ctrl,PRP4,100 % Ctrl
same,IC50,[1],28 nM
same,MYC-CaP-CR colony formation,MYC-CAP-CR cells,decreased MYC-CaP-CR colony formation
same,mouse survival of the metastatic disease,[2],significantly increased mouse survival
same,inhibition of leukemia growth,[3]; 30 mg/kg twice daily by gavage,94%
same,inhibition of leukemia growth,[3]; medicated chow 1 g/kg,99.7%
same,survival post treatment,[3]; oral gavage,superior survival rates
same,Elimination rate k,"[4]; LF-V#2, oral 30 mg/kg",0.22 h⁻¹
same,Elimination rate k,"[4]; Sus-V#1, oral 30 mg/kg",0.37 h⁻¹
same,Elimination rate k,"[4]; Sus-V#2, oral 30 mg/kg",0.38 h⁻¹
same,"increase of AUC, Liquid formulation 2 vs both suspension vehicles","[4]; oral 30 mg/kg, male CD-1 mice",2-3 fold
same,"increase of t1/2, Liquid formulation 2 vs both suspension vehicles","[4]; oral 30 mg/kg, male CD-1 mice",~1.7 fold
same,"increase of AUC, Liquid formulation 2 vs Suspension Vehicle 1",[5],> 3 fold
same,body weight loss,"[6]; female CD-1 mice, 120 mg/kg b.i.d., after 7-10 days of treatment",about 10%
same,detrimental effects,"[6]; female CD-1 mice, doses up to 60 mg/kg b.i.d.",No detrimental effects were observed
same,detrimental effects,"[6]; male CD-1 mice, 60 and 120 mg/kg b.i.d.",No detrimental effects were observed
same,weight loss,[7],5-10%
same,ALP activity Assay EC200,[8],31.9 nM
same,22rv1 tumor growth over the long term,"[9]; 50 mg/kg once a day, 25 mg/kg twice a day, 50 mg/kg twice a day",drastically inhibited 22rv1 tumor growth
same,22rv1 xenograft tumor growth,[9]; [11],strongly suppressed the tumor growth
same,adverse effects and mouse body weight,[9]; [11],no apparent adverse effects and no diminution of mouse body weight
same,AUC(0-t),in vivo,6600 ng·h/mL
same,Kd,CSNK1D,860 nM
same,Kd,CSNK1E,280 nM
same,Elimination rate k,"[10]; LF-V#1, oral 50 mg/kg",0.13 h⁻¹
same,Elimination rate k,"[10]; Sus-V#1, oral 50 mg/kg",0.25 h⁻¹
same,"increase of AUC, Liquid formulation 1 vs Suspension Vehicle 1","[10]; oral 50 mg/kg, male FVB mice",2.3 fold
same,"increase of t1/2, Liquid formulation 1 vs Suspension Vehicle 1","[10]; oral 50 mg/kg, male FVB mice",~2 fold
